In US20250171423A1, “PHARMACEUTICAL COMPOUNDS FOR THE TREATMENT OF COMPLEMENT MEDIATED DISORDERS” (Achillion Pharmaceuticals, Inc., priority 2020, published 2025):

What follows are molecules tested against T1, Human complement C1s enzyme (Homo sapiens, UniProt P09871) (assay: Human C1s Enzyme Assay). Details: human C1s 1.16 nM, 5 min preincubation, substrate Z-L-Lys-SBzl 100 μM, A405; read-out: C1s Protease Activity.
T1 construct: purified from human serum, Complement Technology, Inc; purchased Complement Technology, Inc; host or cells: human serum
T1 sequence (P09871 438-688 limits assumed): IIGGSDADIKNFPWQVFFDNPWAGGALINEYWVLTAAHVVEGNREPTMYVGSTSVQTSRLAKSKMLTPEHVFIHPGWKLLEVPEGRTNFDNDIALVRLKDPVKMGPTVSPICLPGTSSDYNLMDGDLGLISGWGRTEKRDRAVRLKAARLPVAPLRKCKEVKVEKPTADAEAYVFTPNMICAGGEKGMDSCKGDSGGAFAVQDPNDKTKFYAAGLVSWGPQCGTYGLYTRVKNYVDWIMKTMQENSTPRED
T1 sequence (P09871 16-437 partner limits assumed): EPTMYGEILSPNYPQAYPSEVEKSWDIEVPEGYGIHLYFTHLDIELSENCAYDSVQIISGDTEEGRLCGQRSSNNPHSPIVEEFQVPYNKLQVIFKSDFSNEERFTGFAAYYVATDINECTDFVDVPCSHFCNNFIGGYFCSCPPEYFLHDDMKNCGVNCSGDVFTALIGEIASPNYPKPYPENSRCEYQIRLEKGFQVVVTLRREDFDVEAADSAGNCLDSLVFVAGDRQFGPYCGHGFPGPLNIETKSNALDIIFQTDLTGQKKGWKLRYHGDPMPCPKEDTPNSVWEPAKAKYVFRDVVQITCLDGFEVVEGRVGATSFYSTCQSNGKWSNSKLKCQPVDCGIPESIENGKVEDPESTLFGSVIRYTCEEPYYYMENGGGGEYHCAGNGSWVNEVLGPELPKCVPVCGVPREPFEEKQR
Type: biochemical
Outline: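 IC50 values were fitted by nonlinear regression to rates measured as A405 every 30 s for 30 min. The thioester substrate Z-L-Lys-SBzl and Ellman's reagent were each at 100 μM. Serum-derived C1s at 1.16 nM final had 5 min of room-temperature preincubation with compound (pH 7.5 Tris buffer, 1 M NaCl).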

Compound | IC50
C[C@@H](NC(=O)[C@@H]1CC2(CN1C(=O)CNC(=O)c1ccc(C(=O)c3ccccc3)cc1)OCCO2)c1cc(C(=N)N)cs1 [Compound 219, (S)-7-((4-benzoylbenzoyl)glycyl)-N-((R)-1-(4-carbamimidoylthiophen-2-yl)ethyl)-1,4-dioxa-7-azaspiro[4.4]nonane-8-carboxamide] | < 0.1 µM
C[C@@H](NC(=O)[C@@H]1C[C@@]23COCCCCCCCCCCCCCC(=O)N[C@@H](CCOc4ccccc4)C(=O)NCC(=O)N1[C@H]2C3)c1cc(C(=N)N)cs1 [Compound 255, (1R,19S,25S,28S)-N-((R)-1-(4-carbamimidoylthiophen-2-yl)ethyl)-17,20,23-trioxo-19-(2-phenoxyethyl)-3-oxa-18,21,24-triazatricyclo[22.2.2.0^125]octacosane-28-carboxamide] | < 0.1 µM
N=C(N)c1csc(CNC(=O)[C@@H]2CC(OC(F)(F)F)CN2C(=O)CNC(=O)c2ccc(Oc3ccccc3)cc2)c1 (stereo in doubt) [Compound 247, (2S,4S)-N-((4-carbamimidoylthiophen-2-yl)methyl)-1-((4-phenoxybenzoyl)glycyl)-4-(trifluoromethoxy)pyrrolidine-2-carboxamide] | < 0.1 µM
N=C(N)c1csc(CNC(=O)[C@@H]2CC3(CN2C(=O)CNC(=O)CCCOc2ccc(C4CC4)cc2)OCCO3)c1 [Compound 208, (S)-N-((4-carbamimidoylthiophen-2-yl)methyl)-7-((4-(4-cyclopropylphenoxy)butanoyl)glycyl)-1,4-dioxa-7-azaspiro[4.4]nonane-8-carboxamide] | < 0.1 µM
C[S@](=N)(=O)[C@@H]1C[C@@H](C(=O)NCc2cc(C(=N)N)cs2)N(C(=O)CNC(=O)c2ccc(Oc3ccccc3)cc2)C1 [Compound 68, (2S,4R)-N-((4-carbamimidoylthiophen-2-yl)methyl)-4-((S)-S-methylsulfonimidoyl)-1-((4-phenoxybenzoyl)glycyl)pyrrolidine-2-carboxamide] | < 0.1 µM
N=C(N)c1csc([C@@H](CO)NC(=O)[C@@H]2C[C@@H](OC(F)F)CN2C(=O)CNC(=O)c2ccc(Oc3ccccc3)cc2)c1 [Compound 197, (2S,4R)-N-((R)-1-(4-carbamimidoylthiophen-2-yl)-2-hydroxyethyl)-4-(difluoromethoxy)-1-((4-phenoxybenzoyl)glycyl)pyrrolidine-2-carboxamide] | < 0.1 µM
COC[C@@]1(F)C[C@@H](C(=O)N[C@H](C)c2cc(C(=N)N)cs2)N(C(=O)CNC(=O)CCCOc2ccccc2)C1 [Compound 149, (2S,4R)-N-((R)-1-(4-carbamimidoylthiophen-2-yl)ethyl)-4-fluoro-4-(methoxymethyl)-1-((4-phenoxybutanoyl)glycyl)pyrrolidine-2-carboxamide] | < 0.1 µM
CCOC(=O)c1ccc(OCCCC(=O)NCC(=O)N2[C@H]3C[C@@]3(C)C[C@H]2C(=O)NCc2cc(C(=N)N)cs2)cc1 [Compound 79, Ethyl 4-(4-((2-((1S,3S,5S)-3-(((4-carbamimidoylthiophen-2-yl)methyl)carbamoyl)-5-methyl-2-azabicyclo[3.1.0]hexan-2-yl)-2-oxoethyl)amino)-4-oxobutoxy)benzoate] | < 0.1 µM
N=C(N)c1csc([C@H](NC(=O)[C@@H]2CC3(CN2C(=O)CNC(=O)CCCOc2ccccc2)OCCO3)C2CCCC2)c1 [Compound 174, (S)-N-((R)-(4-carbamimidoylthiophen-2-yl)(cyclopentyl)methyl)-7-((4-phenoxybutanoyl)glycyl)-1,4-dioxa-7-azaspiro[4.4]nonane-8-carboxamide] | > 1 µM
C[C@@H](NC(=O)[C@@H]1C[C@](F)(CF)CN1C(=O)CNC(=O)CCCOc1ccc(F)cc1)c1cc(C(=N)N)cs1 [Compound 99, (2S,4R)-N-[(1R)-1-(4-carbamimidoylthiophen-2-yl)ethyl]-4-fluoro-4-(fluoromethyl)-1-{2-[4-(4-fluorophenoxy)butanamido]acetyl}pyrrolidine-2-carboxamide] | < 0.1 µM
C[C@@H](NC(=O)[C@@H]1C[C@@]23COCCCCCCCCCCCCc4cc(ccc4Oc4ccc(F)cc4)C(=O)NCC(=O)N1[C@H]2C3)c1cc(C(=N)N)cs1 [Compound 257, (1R,26S,29S)-N-[(1R)-1-(4-carbamimidoylthiophen-2-yl)ethyl]-17-(4-fluorophenoxy)-21,24-dioxo-3-oxa-22,25-diazatetracyclo[23.2.2.1^16,^20.0^1,^26]triaconta-16,18,20(30)-triene-29-carboxamide] | > 1 µM
N=C(N)c1csc(CNC(=O)[C@@H]2C[C@H](OC(F)(F)F)CN2C(=O)CNC(=O)c2ccc(Oc3ccccc3)cc2)c1 [Compound 244, (2S,4S)-N-((4-carbamimidoylthiophen-2-yl)methyl)-1-((4-phenoxybenzoyl)glycyl)-4-(trifluoromethoxy)pyrrolidine-2-carboxamide] | < 0.1 µM

Now from value to molecule:

IC50 | Compound
< 0.1 µM | C[C@@]12C[C@@H]1N(C(=O)CNC(=O)c1cccc(Oc3ccccc3)c1)[C@H](C(=O)NCc1cc(C(=N)N)cs1)C2 [Compound 137, (1S,3S,5S)-N-((4-carbamimidoylthiophen-2-yl)methyl)-5-methyl-2-((3-phenoxbenzoyl)glycyl)-2-azabicyclo[3.1.0]hexane-3-carboxamide]
> 1 µM | C[C@@]12C[C@@H]1N(C(=O)CNC(=O)c1ccc(Oc3ccccc3)cc1)[C@H](C(=O)NCc1cc(C(=N)N)c(C(F)(F)F)s1)C2 [Compound 248, (1S,3S,5S)-N-((4-carbamimidoyl-5-(trifluoromethyl)thiophen-2-yl)methyl)-5-methyl-2-((4-phenoxybenzoyl)glycyl)-2-azabicyclo[3.1.0]hexane-3-carboxamide]
< 0.1 µM | N=C(N)c1csc(CNC(=O)[C@@H]2C[C@]3(CN2C(=O)CNC(=O)CCCOc2ccccc2)CC3(F)F)c1 [Compound 57, (3R,6S)-N-((4-carbamimidoylthiophen-2-yl)methyl)-1,1-difluoro-5-((4-phenoxy-butanoyl)glycyl)-5-azaspiro[2.4]heptane-6-carboxamide]
0.1 to 1 µM | N=C(N)c1csc(CNC(=O)[C@@H]2C[C@@H](C(F)F)CN2C(=O)CNC(=O)CCCOc2ccccc2)c1 [Compound 147, (2S,4R)-N-((4-carbamimidoylthiophen-2-yl)methyl)-4-(difluoromethyl)-1-((4-phenoxybutanoyl)glycyl)pyrrolidine-2-carboxamide]
< 0.1 µM | Cc1ccccc1[C@H]1C[C@@H](C(=O)NCc2cc(C(=N)N)cs2)N(C(=O)CNC(=O)CCCOc2ccccc2)C1 [Compound 150]
< 0.1 µM | C[C@@]12C[C@@H]1N(C(=O)CNC(=O)CCCCc1ccccc1)[C@H](C(=O)NCc1cc(C(=N)N)cs1)C2 [Compound 81, (1S,3S,5S)-N-((4-carbamimidoylthiophen-2-yl)methyl)-5-methyl-2-((5-phenyl-pentanoyl)glycyl)-2-azabicyclo[3.1.0]hexane-3-carboxamide]
< 0.1 µM | CCCC(COc1ccccc1)CC(=O)NCC(=O)N1CC2(C[C@H]1C(=O)NCc1cc(C(=N)N)cs1)OCCO2 (stereo partly drawn) [Compound 90, (8S)-N-((4-carbamimidoylthiophen-2-yl)methyl)-7-((3-(phenoxymethyl)hexanoyl)glycyl)-1,4-dioxa-7-azaspiro[4.4]nonane-8-carboxamide]
< 0.1 µM | N=C(N)c1csc(CNC(=O)[C@@H]2CC(=C(F)F)CN2C(=O)CNC(=O)CCCOc2ccccc2)c1 [Compound 26, (S)-N-((4-carbamimidoylthiophen-2-yl)methyl)-4-(difluoromethylene)-1-((4-phenoxy-butanoyl)glycyl)pyrrolidine-2-carboxamide]
